{"source": "patent US12427138B2", "about": "“Treatment of Meniere's disease” (SOUND PHARMACEUTICALS INCORPORATED, priority 2016, dated 2025)", "key": {"[1]": {"test_system": "adults with Meniere's disease", "assay": "Phase 1b clinical study: safety and tolerability of SPI-1005", "assay_type": "in vivo, human", "conditions": "first two cohorts (26 of 40 subjects); for safety and tolerability: oral dosing BID for 21 days", "description": "(§1) The general approach for the investigation of the safety and efficacy of SPI-1005 for Meniere's disease is conducting this phase lb, safety, pharmacokinetic and pharmacodynamic study in 40 adults with Meniere's disease. The study is evaluating escalating doses of SPI-1005 at 200, 400 or 600 mg po BID versus placebo for twenty-one days for impact on pure-tone audiometry, speech discrimination, electrocochleography, and patient-reported outcomes using validated questionnaires for assessing vertigo and tinnitus (Hornibrook, et al., 2012; Meikle, et al., 2011; Yardley, et al., 2004). This study is ongoing and being conducted in compliance with the protocol, Good Clinical Practice (GCP) and the applicable regulatory requirements.\nThe safety and tolerability of SPI-1005 is being determined by examining the toxicities and adverse events that are attributable to treatment. […]\nBefore, during, and for 28 days after administration of SPI-1005, patients were evaluated for safety by history, physical examination, vital signs and blood tests (complete blood count [CBC], Chemistry-20 [Chem-20]). Peak and trough plasma levels of ebselen and its major metabolite were determined using liquid chromatography-mass spectrometry (LCMS) at certain time points. Additionally, plasma was analyzed by High Performance Liquid Chromatography-Inductively Coupled Plasma-Mass Spectrometry (HPLC-ICP-MS) for total selenium at the corresponding time points. Patients were monitored for adverse events at each clinic visit. Female patients received pregnancy testing, and those found to be pregnant were excluded or discontinued from the study and monitored for adverse events. […]\nHistory and physical examinations, vital signs and analysis of lab reports were performed to evaluate the safety of SPI-1005. […] Blood test results were analyzed according to currently established laboratory norms. […]\nBlood testing was performed at specified intervals to evaluate the safety of SPI-1005. […] Blood was collected and shipped to a designated CRO(s) to quantify ebselen, ebselen metabolite, and total selenium. […]"}, "[2]": {"test_system": "adults with Meniere's disease", "assay": "Phase 1b clinical study: pure-tone audiometry (PTA), low frequency hearing", "assay_type": "in vivo, human", "description": "as §1\n(§2) The effect of SPI-1005 on hearing and vertigo was evaluated at baseline, at the end of 21 days of treatment and 28 days after completing treatment. Tinnitus was evaluated at baseline, weekly during treatment, and 7 and 28 days after treatment. Hearing was evaluated using pure-tone audiometric testing at 0.25, 0.5, 1, 2, 3, 4, 6, and 8 kHz, and speech discrimination using the WINT at 24, 20, 16, 12, 8, 4, and 0 Signal-to-Noise ratio (SNR). The severity of vertigo was assessed using the VSS. The severity of tinnitus was assessed using the TFI. In addition, ECochG was conducted at baseline, at the end of treatment and 28 days after completing treatment in order to measure the pharmacodynamic response.\n(§3) Audiological evaluations were performed at specified intervals to evaluate the efficacy of SPI-1005. […] These were scored by study personnel. […]\n(§4) Audiometric data were collected in the form of categorical and continuous variables. Categorical data were analyzed using the chi-square distribution. Continuous data were analyzed using mixed-effects multiple-repeated measures, and post-hoc analysis, when necessary, was adjusted using Bonferroni applications. Non-parametric tests included the Mann-Whitney U. Calculated p-values were considered statistically significant at or below an alpha value of 0.05. […]"}, "[3]": {"test_system": "adults with Meniere's disease", "assay": "Phase 1b clinical study: speech discrimination, Words-in-Noise Test (WINT) / word recognition scores", "assay_type": "in vivo, human", "description": "as §1, §2, §3, §4"}, "[4]": {"test_system": "adults with Meniere's disease", "assay": "Phase 1b clinical study: Tinnitus Functional Index (TFI)", "assay_type": "in vivo, human", "description": "(§5) The general approach for the investigation of the safety and efficacy of SPI-1005 for Meniere's disease is conducting this phase lb, safety, pharmacokinetic and pharmacodynamic study in 40 adults with Meniere's disease. The study is evaluating escalating doses of SPI-1005 at 200, 400 or 600 mg po BID versus placebo for twenty-one days for impact on pure-tone audiometry, speech discrimination, electrocochleography, and patient-reported outcomes using validated questionnaires for assessing vertigo and tinnitus (Hornibrook, et al., 2012; Meikle, et al., 2011; Yardley, et al., 2004). […]\n(§6) The effect of SPI-1005 on hearing and vertigo was evaluated at baseline, at the end of 21 days of treatment and 28 days after completing treatment. Tinnitus was evaluated at baseline, weekly during treatment, and 7 and 28 days after treatment. Hearing was evaluated using pure-tone audiometric testing at 0.25, 0.5, 1, 2, 3, 4, 6, and 8 kHz, and speech discrimination using the WINT at 24, 20, 16, 12, 8, 4, and 0 Signal-to-Noise ratio (SNR). The severity of vertigo was assessed using the VSS. The severity of tinnitus was assessed using the TFI. […]\nas §3"}, "[5]": {"test_system": "adults with Meniere's disease", "assay": "Phase 1b clinical study: Tinnitus Loudness (TL) visual analogue scale", "assay_type": "in vivo, human", "description": "as §1\nMultiple clinical assessments and analysis of auditory and vestibular function • Pure tone audiometry and word recognition scores: Baseline, 21d tx, and 28d post-tx • Hearing loss is typically unilateral and low frequency (0.25, 0.5 and 1 kHz) • Significant hearing improvement ≥10 dB reduction from baseline • Words in noise tests (WINT) 35 words under 7 different SNRs to each ear (0-35) • Significant WINT improvement ≥10% increase from baseline • Tinnitus Functional Index (TFI) : Baseline, and 7d, 14d and 21d tx, and 7d and 28d post-tx • 25 questions answered by patient regarding their tinnitus severity (0-100) • Significant TFI improvement ≥10 pt reduction from baseline • Tinnitus Loudness (TL) answered by patient on a visual analogue scale (0-10) • Significant TL improvement ≥2 pt reduction from baseline • Vertigo Symptom Scale (VSS): Baseline, 21d tx, and 28d post-tx • 15 questions answered by patient regarding their vertigo severity (0-60) • Significant VSS improvement ≥6 pt reduction from baseline"}, "[6]": {"test_system": "adults with Meniere's disease", "assay": "Phase 1b clinical study: Vertigo Symptom Scale (VSS)", "assay_type": "in vivo, human", "description": "as §5, §6, §3"}, "[7]": {"test_system": "adults with Meniere's disease", "assay": "Phase 1b clinical study: initial analysis of efficacy, secondary endpoints versus placebo", "assay_type": "in vivo, human", "conditions": "two analyzed cohorts", "description": "as §1, with “requirements. […]” for “requirements.”\nStudy participants were been randomized to SPI-1005 or placebo in this double-blind, dose-escalation study to evaluate its safety and preliminary efficacy. Patients, aged 19-70 years, with probable or definite Meniere's disease have undergone baseline testing to have their severity of sensorineural hearing loss, tinnitus and vertigo determined before the start of study treatment (see Table 3: Schedule of Assessments). […]"}, "[8]": {"conditions": "25° Celsius; cited from earlier work"}, "[9]": {"conditions": "Noguchi et al., 1992; 1994; cited from earlier work"}, "[10]": {"test_system": "cytochrome-C release from mitochondria", "conditions": "during lipid peroxidation; Namura et al., 2001; cited from earlier work"}, "[11]": {"test_system": "cochlea following noise- or ototoxin-induced injury", "conditions": "preclinical animal studies; cited from earlier work"}}, "note": "“Also recorded” adds a separate entry of the source.", "data": [{"smiles": "O=c1c2ccccc2[se]n1-c1ccccc1", "note": "[ebselen, 2-phenyl-1,2-benzisoselenazol-3(2H)-one]", "values": [{"measurement": "drug-related adverse events", "setting": "[1]", "value": "no drug-related adverse events have occurred"}, {"measurement": "safety and tolerability", "setting": "[1]", "value": "safe and well tolerated"}, {"measurement": "safety and tolerability", "setting": "[1]; listed as SPI-1005", "value": "well tolerated with no adverse events due to study drug"}, {"measurement": "highest improvement in low frequency (0.25, 0.5, and 1 kHz) hearing", "setting": "[2]; PTA, oral dosing 21 days, first two cohorts", "value": "≤ 35", "unit": "dB"}, {"measurement": "PTA improvement, actives vs placebos", "setting": "[2]; first two cohorts", "value": "significant and specific to actives vs placebos"}, {"measurement": "share of actives with significant hearing improvement ≥10 dB", "setting": "[2]; ≥10 dB reduction from baseline, no significant improvement in placebos", "value": 60, "unit": "%"}, {"measurement": "WINT improvement, actives vs placebos", "setting": "[3]; first two cohorts", "value": "significant and specific to actives vs placebos"}, {"measurement": "highest improvement over baseline WRS", "setting": "[3]; word recognition scores, oral dosing 21 days", "value": "≤ 120", "unit": "%"}, {"measurement": "share of actives with significant WINT improvement ≥10% increase", "setting": "[3]; ≥10% increase from baseline, no significant improvement in placebos", "value": 35, "unit": "%"}, {"measurement": "share of actives with significant TFI improvement ≥10 pt reduction", "setting": "[4]; placebo 50%", "value": 40, "unit": "%"}, {"measurement": "highest improvement in TFI score (reduction)", "setting": "[4]; scale 0-100", "value": "≤ 62", "unit": "pt"}, {"measurement": "TL improvement, actives vs placebo", "setting": "[5]; human, in vivo", "value": "greater in actives than placebo"}, {"measurement": "share of actives with significant TL improvement ≥2 pt reduction", "setting": "[5]; placebo 33%", "value": 70, "unit": "%"}, {"measurement": "highest improvement in tinnitus loudness (reduction)", "setting": "[5]; scale 0-10", "value": "≤ 8", "unit": "pt"}, {"measurement": "VSS improvement, actives vs placebo", "setting": "[6]; human, in vivo", "value": "greater in actives than placebo"}, {"measurement": "share of actives with significant VSS improvement ≥6 pt reduction", "setting": "[6]; placebo 33%", "value": 55, "unit": "%"}, {"measurement": "clinical efficacy (hearing, tinnitus, vertigo) versus placebo", "setting": "[7]", "value": "achieved several secondary endpoints versus placebo; also recorded: good clinical efficacy"}, {"measurement": "clinical efficacy (hearing, tinnitus, vertigo) versus placebo", "setting": "[7]; listed as Ebselen", "value": "clinically relevant improvements in hearing, tinnitus and vertigo"}, {"measurement": "solubility in aqueous solutions", "setting": "[8]", "value": "slightly soluble"}, {"measurement": "activity against peroxynitrite", "setting": "[9]", "value": "strong activity against peroxynitrite"}, {"measurement": "effect on cytochrome-C release from mitochondria and nuclear damage", "setting": "[10]", "value": "reduces cytochrome-C release from mitochondria and nuclear damage"}, {"measurement": "effect on pathologic changes in the cochlea", "setting": "[11]", "value": "prevent or reverse the pathologic changes in the cochlea"}]}]}
